In patent US20040267028A1, “Preparation and use of pyrrole derivatives for treating obesity” (priority 2001, published 2004):
Structures can show the parent of a compound that is named as a salt.

System: lean overnight fasted rats
Experiment: Fasted-refed acute feeding assay (reduction of food intake)
Type: in vivo, rat
Settings: 10 mg/kg p.o., single dose, measured at time points from 30 to 240 minutes
Description: Evaluation of Compound's Efficacy on the Reduction of Food Intake (Suppression of Appetite) in Lean Overnight Fasted Rats
Fasted-Refed Acute Feeding Assay
The purpose of this protocol is to determine the effect of a single dose of an unknown compound on food consumption of lean overnight fasted rats. The fasted-refed rat model is frequently used in the field of obesity to identify compounds with potential for anorectic effects. This animal model has been successfully used in the identification and characterization of the efficacy profile of compounds that are or have been used in the management of body weight in obese humans (see, e.g., Balvet et al., Gen. Pharmacol. 13:293-297, 1982; Grignaschi et al., Br. J. Pharmacol. 127:1190-1194, 1999; McTavish and Heel, Drug 43:713-733, 1992; Rowland et al., Life Sci. 36:2295-2300, 1985). […]
The vehicle test: The rats are grouped based upon their performance on a vehicle test. […] After 1 hour, the spillage is returned to the food jar and the amount of food consumed is determined. […]
The efficacy test: The rats are fasted overnight during the dark phase (total of approx. 16-18 hr). […] Food intake is recorded 30, 60, 90, 180, and 240 minutes post-food return. […] The amount of food consumed is determined for each time point. Difference between treatment group is determined using appropriate statistical analysis.

Cc1c(C(=O)NN2CCCCC2)cc(-c2ccc(Cl)cc2)n1-c1ccccc1Cl [Entry 23, 1-(2-chlorophenyl)-5-(4-chlorophenyl)-2-methyl-N-(1-piperidinyl)-1H-pyrrole-3-carboxamide hydrochloride] was tested, and the “food consumption was reduced (relative to the food consumption observed for the vehicle control group)” value was “up to 25%”.
With COc1ccc(-c2c(C)c(C(=O)NNc3ccc(C(F)(F)F)cc3)c(C)n2-c2ccccc2Cl)cc1.Cl [Entry 43, 1-(2-chlorophenyl)-5-(4-methoxyphenyl)-2,4-dimethyl-N′-[4-(trifluoromethyl)phenyl]-1H-pyrrole-3-carbohydrazide hydrochloride] the “food consumption was reduced (relative to the food consumption observed for the vehicle control group)” value was “up to 35%”.
